Measured values reported in ChEMBL document CHEMBL1201862, “PubChem BioAssay data set” (2004).
Calls of active or inactive are those of the source.

Assays:
[1] = target: T1, Zinc finger protein mex-5 (Caenorhabditis elegans, UniProt Q9XUB2); experiment: potency of MEX-5 RNA-binding blockers – biochemical, C. elegans, fluorescence polarization, dose response (AID 1960)
T1 sequence (Q9XUB2 whole entry): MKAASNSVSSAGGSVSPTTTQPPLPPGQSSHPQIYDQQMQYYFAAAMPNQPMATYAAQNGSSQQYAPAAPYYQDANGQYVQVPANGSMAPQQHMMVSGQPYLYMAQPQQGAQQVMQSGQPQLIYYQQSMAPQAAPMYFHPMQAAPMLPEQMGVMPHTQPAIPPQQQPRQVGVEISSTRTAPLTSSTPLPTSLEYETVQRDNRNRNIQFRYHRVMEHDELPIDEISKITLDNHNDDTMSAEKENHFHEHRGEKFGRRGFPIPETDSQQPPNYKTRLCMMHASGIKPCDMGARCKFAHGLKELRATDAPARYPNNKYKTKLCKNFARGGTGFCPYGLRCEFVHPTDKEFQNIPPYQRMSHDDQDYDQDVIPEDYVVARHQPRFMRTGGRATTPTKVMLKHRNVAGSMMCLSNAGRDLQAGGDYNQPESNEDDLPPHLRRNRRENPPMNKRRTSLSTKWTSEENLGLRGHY

[2] = target: T2, RNA-binding protein pos-1 (Caenorhabditis elegans, UniProt G5EF15); experiment: disruptors of C. elegans POS-1 RNA interaction – biochemical, fluorescence polarization, dose response (AID 1964);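 note: purified POS-1 fused to maltose binding protein made in E. coli; potency of compounds blocking POS-1 binding to fluorescent RNA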
T2 sequence (G5EF15 whole entry): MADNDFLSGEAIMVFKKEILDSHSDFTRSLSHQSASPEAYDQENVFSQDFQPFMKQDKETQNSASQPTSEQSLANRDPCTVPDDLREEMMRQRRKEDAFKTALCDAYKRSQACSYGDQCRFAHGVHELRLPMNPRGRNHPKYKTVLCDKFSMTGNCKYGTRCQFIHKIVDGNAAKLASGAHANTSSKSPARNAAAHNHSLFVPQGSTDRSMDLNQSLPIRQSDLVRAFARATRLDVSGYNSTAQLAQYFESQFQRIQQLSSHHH

[3] = target: T3, Leucine aminopeptidase (Plasmodium falciparum 3D7, UniProt Q8IL11); experiment: P. falciparum M17LAP inhibitors, primary screen, biochemical, fluorogenic H-Leu-NHMec substrate, 1536-well (AID 1619); assay type: functional
T3 sequence (Q8IL11 whole entry): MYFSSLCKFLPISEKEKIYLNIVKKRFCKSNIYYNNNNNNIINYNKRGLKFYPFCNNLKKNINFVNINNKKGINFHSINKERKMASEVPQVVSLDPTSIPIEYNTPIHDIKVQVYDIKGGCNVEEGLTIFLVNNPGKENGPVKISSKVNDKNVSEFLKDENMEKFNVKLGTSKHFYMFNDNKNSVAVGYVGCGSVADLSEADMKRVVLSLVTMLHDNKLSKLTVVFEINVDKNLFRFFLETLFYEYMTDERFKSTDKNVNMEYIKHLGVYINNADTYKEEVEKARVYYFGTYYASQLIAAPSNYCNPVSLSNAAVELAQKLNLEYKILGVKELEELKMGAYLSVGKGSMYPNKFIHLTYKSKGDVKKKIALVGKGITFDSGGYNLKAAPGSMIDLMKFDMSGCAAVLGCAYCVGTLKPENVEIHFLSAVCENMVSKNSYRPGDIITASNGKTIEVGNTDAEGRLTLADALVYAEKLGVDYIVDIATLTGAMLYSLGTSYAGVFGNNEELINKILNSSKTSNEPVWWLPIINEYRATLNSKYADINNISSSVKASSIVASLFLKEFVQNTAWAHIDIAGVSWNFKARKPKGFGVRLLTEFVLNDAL

[4] = Luminescence Cell-Based Dose Response HTS to Identify Inhibitors of 5'UTR Stem-Loop Driven Prion Protein mRNA Translation in H4 Neuroglioblastoma Cells. [Related pubchem assays: 1827 (Project Summary), 1813 (Primary HTS)]; assay type: functional
[5] = luciferase reporter signal suppression in cells – H4 neuroglioma cells, luminescence, dose response (AID 1990); assay type: functional, cell-based
[6] = viability of uninfected HEp-2 cells – cell-based, HTS, cytotoxicity control for RSV inhibitor project, dose response (AID 2410); assay type: functional; conditions: human respiratory syncytial virus
[7] = alpha-synuclein stem-loop luciferase translation blockers – H4 neuroglioma cells, luminescence, confirmation (AID 1988); assay type: functional, cell-based
[8] = target: T4, Protein skinhead-1 (Caenorhabditis elegans, UniProt P34707); assay type: functional
T4 sequence (P34707 whole entry): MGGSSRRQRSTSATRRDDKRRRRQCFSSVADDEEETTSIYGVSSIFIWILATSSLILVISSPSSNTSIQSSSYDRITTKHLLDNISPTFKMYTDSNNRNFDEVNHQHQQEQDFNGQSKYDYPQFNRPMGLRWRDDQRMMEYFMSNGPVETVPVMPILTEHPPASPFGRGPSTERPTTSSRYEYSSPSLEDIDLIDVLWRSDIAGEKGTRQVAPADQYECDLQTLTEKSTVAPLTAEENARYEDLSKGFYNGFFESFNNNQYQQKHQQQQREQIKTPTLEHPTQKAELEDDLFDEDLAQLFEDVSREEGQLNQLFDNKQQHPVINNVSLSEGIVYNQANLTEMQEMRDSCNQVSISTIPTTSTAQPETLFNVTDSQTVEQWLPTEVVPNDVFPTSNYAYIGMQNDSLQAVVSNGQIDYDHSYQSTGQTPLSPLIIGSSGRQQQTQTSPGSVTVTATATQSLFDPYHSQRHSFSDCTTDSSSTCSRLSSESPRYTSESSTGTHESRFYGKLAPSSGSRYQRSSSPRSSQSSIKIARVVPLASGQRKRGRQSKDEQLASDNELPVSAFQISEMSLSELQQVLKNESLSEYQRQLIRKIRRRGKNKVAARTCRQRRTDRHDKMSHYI

[9] = microbe, parasite or virus in culture; assay type: functional; conditions: Mycobacterium tuberculosis
[10] = Luminescence Cell-Based Dose Retest to Confirm Inhibitors of Cancer Stem Cells. [Related pubchem assays (depositor defined):AID2717, AID2721]; assay type: functional; conditions: Homo sapiens
[11] = target: Cytochrome P450 2D6 (Homo sapiens, UniProt P10635);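 note: CYP2D6 member of a cytochrome P450 panel assay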
Sequence of Cytochrome P450 2D6 (P10635 whole entry): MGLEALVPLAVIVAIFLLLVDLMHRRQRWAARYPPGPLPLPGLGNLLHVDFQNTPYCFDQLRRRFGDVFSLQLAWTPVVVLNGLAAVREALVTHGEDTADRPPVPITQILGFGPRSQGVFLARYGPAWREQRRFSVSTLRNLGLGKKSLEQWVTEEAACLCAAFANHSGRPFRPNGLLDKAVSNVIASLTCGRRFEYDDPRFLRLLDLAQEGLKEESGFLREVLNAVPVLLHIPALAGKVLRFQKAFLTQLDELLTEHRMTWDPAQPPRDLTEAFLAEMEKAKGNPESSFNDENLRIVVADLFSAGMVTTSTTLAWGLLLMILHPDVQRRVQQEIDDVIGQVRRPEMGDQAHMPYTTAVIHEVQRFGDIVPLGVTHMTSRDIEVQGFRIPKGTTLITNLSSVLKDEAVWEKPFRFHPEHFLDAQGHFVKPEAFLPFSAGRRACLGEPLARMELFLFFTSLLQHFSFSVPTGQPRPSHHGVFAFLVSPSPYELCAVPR

[12] = target: T5, Cytochrome P450 1A2 (Homo sapiens, UniProt P05177);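 note: PubChem cytochrome P450 panel assay, CYP1A2 panel member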
T5 sequence (P05177 whole entry): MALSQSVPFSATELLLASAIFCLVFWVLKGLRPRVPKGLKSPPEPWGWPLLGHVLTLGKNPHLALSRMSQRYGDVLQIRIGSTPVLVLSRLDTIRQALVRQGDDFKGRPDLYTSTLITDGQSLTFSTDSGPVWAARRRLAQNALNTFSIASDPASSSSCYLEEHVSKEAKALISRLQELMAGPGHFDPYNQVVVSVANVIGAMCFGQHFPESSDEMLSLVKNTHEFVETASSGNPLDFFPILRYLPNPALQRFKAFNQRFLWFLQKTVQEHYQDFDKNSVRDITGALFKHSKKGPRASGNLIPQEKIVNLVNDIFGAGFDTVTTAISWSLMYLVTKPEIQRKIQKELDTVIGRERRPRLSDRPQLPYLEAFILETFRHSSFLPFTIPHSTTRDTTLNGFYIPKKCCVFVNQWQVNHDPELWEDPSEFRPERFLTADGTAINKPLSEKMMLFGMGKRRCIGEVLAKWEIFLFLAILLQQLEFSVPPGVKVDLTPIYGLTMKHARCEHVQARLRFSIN

[13] = target: Cytochrome P450 3A4 (Homo sapiens, UniProt P08684);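 note: CYP3A4 tested as one member of a cytochrome P450 panel screen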
Sequence of Cytochrome P450 3A4 (P08684 whole entry): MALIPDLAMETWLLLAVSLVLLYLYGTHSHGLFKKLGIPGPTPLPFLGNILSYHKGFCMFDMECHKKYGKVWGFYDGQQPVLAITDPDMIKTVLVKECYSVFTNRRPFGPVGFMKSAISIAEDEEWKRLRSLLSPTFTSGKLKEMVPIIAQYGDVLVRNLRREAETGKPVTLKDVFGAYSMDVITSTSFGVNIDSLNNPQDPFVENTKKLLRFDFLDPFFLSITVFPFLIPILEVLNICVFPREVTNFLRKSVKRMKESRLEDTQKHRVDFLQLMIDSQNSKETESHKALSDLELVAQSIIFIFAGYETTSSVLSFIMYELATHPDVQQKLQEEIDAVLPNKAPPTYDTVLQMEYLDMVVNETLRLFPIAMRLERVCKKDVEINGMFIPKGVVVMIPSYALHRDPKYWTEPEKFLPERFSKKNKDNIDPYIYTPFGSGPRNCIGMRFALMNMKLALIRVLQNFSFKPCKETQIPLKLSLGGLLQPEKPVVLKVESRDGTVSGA

[14] = system: Streptococcus; experiment: GAS UMAA2166 growth inhibition – luminescence, BacTiterGlo, counter-screen for streptokinase expression inhibitor project, dose response (AID 1915); assay type: functional, organism-based;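 note: potency for reduction of bacterial viability or growth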
[15] = system: Streptococcus sp. 'group A'; experiment: Streptococcus pyogenes SK(-)GAS viability under kanamycin – luminescence, BacTiterGlo, confirmation, counter-screen for streptokinase expression inhibitor project, dose response (AID 1900); assay type: functional, organism-based
[16] = system: INS1; experiment: INS-1E survival protection against cytokine death – cell-based, luminescence, retest, dose response (AID 449756); assay type: functional; conditions: Rattus norvegicus;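 note: cell death triggered by IL-1 beta plus TNF-alpha plus IFN-gamma mixture; protective hits raise ATP signal compared with cytokine alone wells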

Cc1cc(C(=O)O)ccc1-n1c(C)cc(/C=C2\SC(=O)NC2=O)c1C
EC50 [1]: > 300 µM (not active) | EC50 [2]: > 300 µM (not active)

Cc1cc(C)c(NC(=O)CN2C(=O)NC3(CCCCC3)C2=O)c(Cl)c1
IC50 [3]: 29.3 µM (active)

CCCSc1nnc(N2C(=O)C(O)=C(C(=O)c3ccco3)C2c2ccccc2F)s1 (centres undefined)
EC50 [1]: > 300 µM (not active) | EC50 [2]: > 300 µM (inconclusive)

CC1=NNC(=O)C1CCC(=O)N/N=C/C(Br)=C/c1ccccc1 (centres undefined)
IC50 [3]: 8 µM (active)

O=C(/C=C/c1ccc(OCCCF)cc1)Nc1ccnc(-c2cccnc2)n1
EC50 [1]: 20.6 µM (active) | EC50 [2]: 22.8 µM (active)

COCC(C)n1c(SCc2cc(=O)n3cc(C)ccc3n2)nc2ccccc2c1=O (centres undefined)
EC50 [4]: 12.6 µM (active) | EC50 [5]: > 120 µM (not active) | CC50 [6]: 49.5 µM (active) | EC50 [7]: > 120 µM (not active)

C=CCn1c(CNC(=O)c2ccco2)nnc1SCC(=O)Nc1cccc(Br)c1
IC50 [3]: 90.1 µM (active)

COc1ccc(N/C(=C(/C(Cl)=C(Cl)Cl)[N+](=O)[O-])n2nnc3ccccc32)cc1
EC50 [1]: 49.1 µM (inconclusive) | EC50 [2]: 88.5 µM (active)

CCCCCCCCOc1ccc(C2OC34CCCCC3C(C#N)(C#N)C2(C#N)C(=N)O4)cc1 (centres undefined)
EC50 [1]: 11.8 µM (active) | EC50 [2]: 13 µM (active)

CCOCCCNC(=O)C(c1ccc(Cl)cc1)N1CCC2(CC1)OCCO2 (centres undefined)
IC50 [8]: > 100 µM (inactive)

COc1ccc(NCc2n[nH]nc2-c2ccccc2)cc1Cl
CC50 [9]: > 40 µM (active)

Cc1cccc(NC(=O)c2ccc(COc3ccc(Cl)cc3Cl)o2)n1
AC50 [10]: 1.18 µM (active)

CCCC(=O)Nc1ccc(C(=O)/C=C/c2ccc(SC)cc2)cc1
CC50 [9]: > 40 µM (active) | AC50 [11]: 7.94 µM (inconclusive) | AC50 [12]: 12.6 µM (inconclusive) | AC50 [13]: 3.16 µM (inconclusive)

CCOCCCn1/c(=N/C(C)=O)c(C#N)cc2c(=O)n3ccccc3nc21
EC50 [1]: > 300 µM (not active) | EC50 [2]: > 300 µM (not active)

CC(C)CCNC(=O)c1ccc2c(SCC(=O)O)c3c(nc2c1)CCCC3
IC50 [3]: 39.2 µM (active)

CCCCn1c2c(c(=O)n(C)c1=O)C(c1ccc(OC)cc1)N1CCCCCC1=N2 (centres undefined)
EC50 [4]: > 120 µM (not active) | EC50 [5]: 39.2 µM (active) | EC50 [7]: > 120 µM (not active)

COc1ccc(-c2c[nH]nc2-c2ccc(OCC(=O)NN)cc2O)cc1OC
EC50 [1]: 2.07 µM (active) | EC50 [2]: > 300 µM (not active)

O=C(C=Cc1cccs1)c1ccc(Cl)s1
IC50 [8]: 19.7 µM (active)

Cc1cc(=O)n2c(c1C#N)SC1CCCCC12O (centres undefined)
EC50 [4]: > 120 µM (not active) | EC50 [5]: > 120 µM (not active) | EC50 [7]: > 120 µM (not active)

CCCC(=O)c1c(NC(C)C)cc(C)oc1=O
EC50 [4]: > 120 µM (not active) | EC50 [5]: > 120 µM (not active) | EC50 [7]: > 120 µM (not active)

O=C1NC(=O)N(CC2CCCO2)C(=O)/C1=C/c1c[nH]c2ccccc12 (centres undefined)
EC50 [1]: > 300 µM (not active) | EC50 [2]: > 300 µM (not active)

Cc1cc(C)cc(NC(=O)CSc2ncc(S(=O)(=O)c3ccccc3)c(=O)[nH]2)c1
IC50 [3]: 11.9 µM (active)

Cc1ccc(C)c(NC(=O)CSc2nc(O)c3c(C(F)(F)F)cc(-c4cccs4)nc3n2)c1
AC50 [10]: 2.92 µM (active) | EC50 [14]: 3.04 µM (active) | EC50 [15]: 2.45 µM (active)

CN1CCN(c2ccc(NC(=O)COc3ccc(Cl)cc3Cl)cc2)CC1
AC50 [10]: 2.6 µM (active)

CCn1cc(C=C2C(=O)NC(=O)NC2=O)c2ccccc21
EC50 [1]: > 300 µM (inconclusive) | EC50 [2]: 28.7 µM (inconclusive)

Cc1ccc(-c2nc(-c3ccncc3)no2)c(C)c1
IC50 [8]: 40.9 µM (active)

Cc1ccccc1N/N=C/c1c(C)nc2ccccn12
CC50 [9]: > 40 µM (active) | CC50 [6]: 33.2 µM (active)

COc1ccc(CCNC(=O)COc2nsnc2N2CCOCC2)cc1OC
IC50 [8]: > 100 µM (inactive)

CCCc1cc(O)nc(SCC(=O)N(C)CC(=O)Nc2ccc(C)cc2)n1
IC50 [3]: 9.77 µM (active)

O=C(CSc1nnc[nH]1)Nc1cccc2ccccc12
IC50 [3]: 29.2 µM (active)

CCn1cc([N+](=O)[O-])c(C(=O)Nc2nc(-c3ccc(C)cc3)c(C)s2)n1
AC50 [10]: 4.24 µM (active)

CC1=C(C(=O)OCC2CCCO2)C(c2ccccc2OC(C)C)C2=C(O)CC(c3ccco3)CC2=N1 (centres undefined)
IC50 [8]: > 100 µM (inactive)

Cc1ccc2c(c1)cc1c(=O)n(CC(=O)NCc3ccccn3)nc(C)n12
EC50 [4]: > 120 µM (not active) | EC50 [5]: > 120 µM (not active) | EC50 [7]: > 120 µM (not active)

COc1ccc2c(c1)c(C(O)CN1CCN(Cc3ccc4c(c3)OCO4)CC1)c(C)n2C (centres undefined)
IC50 [8]: > 100 µM (inactive)

CCn1c(C)c(C)c2cc(C(=O)N3CCc4ccccc4C3)ccc21
IC50 [8]: > 100 µM (inactive) | AC50 [16]: 4.05 µM (active)

CC1(C)CC[C@]2(CO)[C@@H](O)C[C@]3(C)C(=CCC4[C@@]5(C)CC[C@H](O)C(C)(C)C5CC[C@]43C)[C@@H]2C1 (some centres undefined)
AC50 [10]: 3.14 µM (active)

c1ccc(-c2csc(-c3ccncc3)n2)cc1
IC50 [8]: 4.05 µM (active)
